Reference: US11046672B2, “Indolinones compounds and their use in the treatment of fibrotic diseases” (RESPIVERT LIMITED, priority 2015, dated 2021)
Read-outs that look alike come from different tables or passages of the source.

How the values were obtained:
[1] = target: T1, PDGFRβ (Homo sapiens (Human), UniProt P09619); conditions: read-out: Ki PDGFRβ; mean, n = 2 unless otherwise indicated
[2] = Pharmacokinetic measurements in rats (intravenous and intra-tracheal dosing); assay type: in vivo; conditions: rat; for concentration at 6 h / concentration at 0.1 h / concentration at 1.5 h / concentration at 24 h: lung, read-out: lung concentration (nM) at time (h); for Kp at 6 h / Kp at 0.1 h / Kp at 1.5 h / Kp at 24 h: lung/plasma
[3] = target: T1, PDGFRβ; test: PDGF-BB induced phosphorylation of PDGFRβ in fibroblasts (MRC5 cells, HTRF); assay type: cell-based; conditions: MRC5 cells; n = 1 unless otherwise indicated; read-out: PDGFBB-induced PDGFRβ phosphorylation in MRC5 cells (IC50)
[4] = target: T1, PDGFRβ; test: Duration of action (washout) against PDGF-BB induced phosphorylation of PDGFRβ in human fetal lung fibroblast cells; assay type: cell-based; conditions: MRC-5 cells, after wash-out, rhuPDGF-BB; experiments in Groups 1-4
[5] = PAMPA permeability assay; assay type: in vitro ADME; conditions: PAMPA, donor and acceptor compartments
[6] = test system: MRC5 cells; test: Cell viability assay in MRC5 cells (MTT)
[7] = Pharmacokinetic measurements in mice (intravenous and intra-nasal dosing); assay type: in vivo; conditions: mouse; for concentration at 6 h / concentration at 0.1 h / concentration at 1.5 h / concentration at 24 h: lung, read-out: lung concentration (nM) at time (h); for Kp at 6 h / Kp at 0.1 h / Kp at 1.5 h: lung/plasma

T1 sequence (P09619 33-1106): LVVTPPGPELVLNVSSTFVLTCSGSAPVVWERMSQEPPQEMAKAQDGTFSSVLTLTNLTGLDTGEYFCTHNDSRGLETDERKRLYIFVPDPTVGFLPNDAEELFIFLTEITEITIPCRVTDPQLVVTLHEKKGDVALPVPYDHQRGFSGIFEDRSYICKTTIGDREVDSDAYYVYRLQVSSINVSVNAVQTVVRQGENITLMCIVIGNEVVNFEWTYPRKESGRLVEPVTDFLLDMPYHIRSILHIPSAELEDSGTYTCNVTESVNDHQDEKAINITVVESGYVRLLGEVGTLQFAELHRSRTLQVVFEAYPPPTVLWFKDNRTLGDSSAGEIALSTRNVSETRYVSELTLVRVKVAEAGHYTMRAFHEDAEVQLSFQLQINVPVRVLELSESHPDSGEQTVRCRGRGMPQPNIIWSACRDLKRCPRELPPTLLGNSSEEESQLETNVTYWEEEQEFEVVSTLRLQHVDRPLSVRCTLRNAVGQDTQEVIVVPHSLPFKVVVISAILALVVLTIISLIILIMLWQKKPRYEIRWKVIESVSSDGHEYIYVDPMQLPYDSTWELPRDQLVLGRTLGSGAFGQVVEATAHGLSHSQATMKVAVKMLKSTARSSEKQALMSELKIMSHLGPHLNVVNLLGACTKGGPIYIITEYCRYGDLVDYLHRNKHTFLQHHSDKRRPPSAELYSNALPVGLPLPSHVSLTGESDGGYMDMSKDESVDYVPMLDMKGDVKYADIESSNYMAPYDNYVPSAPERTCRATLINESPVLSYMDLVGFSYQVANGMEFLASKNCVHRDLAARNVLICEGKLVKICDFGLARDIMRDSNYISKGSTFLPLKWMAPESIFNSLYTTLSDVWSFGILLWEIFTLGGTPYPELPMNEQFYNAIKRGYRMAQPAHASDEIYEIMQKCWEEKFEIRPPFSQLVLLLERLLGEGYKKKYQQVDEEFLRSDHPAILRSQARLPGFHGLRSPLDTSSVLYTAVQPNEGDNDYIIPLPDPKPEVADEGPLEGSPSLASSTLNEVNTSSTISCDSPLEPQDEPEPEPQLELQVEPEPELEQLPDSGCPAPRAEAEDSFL

Ki [1]: 7.13 nM
concentration at 6 h ([2]; male, CD, iv, 0.1 mg/kg, i.v. dosing, 6 h): 92 nM
concentration at 0.1 h ([2]; male, CD, iv, i.v. dosing, 0.1 h): 475 nM
concentration at 1.5 h ([2]; male, CD, iv, i.v. dosing, 1.5 h): 251 nM
concentration at 24 h ([2]; male, CD, iv, i.v. dosing, 24 h): 52 nM
concentration at 0.1 h ([2]; male, CD, other: intra-tracheal, i.t. dosing, 0.1 h): 3590 nM
concentration at 1.5 h ([2]; male, CD, other: intra-tracheal, i.t. dosing, 1.5 h): 1710 nM
concentration at 6 h ([2]; male, CD, other: intra-tracheal, i.t. dosing, 6 h): 629 nM
concentration at 24 h ([2]; male, CD, other: intra-tracheal, i.t. dosing, 24 h): 747 nM
Kp at 6 h ([2]; male, CD, iv, 0.1 mg/kg, i.v. dosing, 6 h, read-out: lung/plasma ratio at time(h)): 26
Kp at 0.1 h ([2]; male, CD, iv, i.v. dosing, 0.1 h, read-out: lung/plasma ratio at time(h)): 24
Kp at 1.5 h ([2]; male, CD, iv, i.v. dosing, 1.5 h, read-out: lung/plasma ratio at time(h)): 36
Kp at 24 h ([2]; male, CD, iv, i.v. dosing, 24 h, read-out: lung/plasma ratio at time(h)): 98
Kp at 0.1 h ([2]; male, CD, other: intra-tracheal, i.t. dosing, 0.1 h, read-out: lung/plasma conc ratio at time(h)): 74
Kp at 1.5 h ([2]; male, CD, other: intra-tracheal, i.t. dosing, 1.5 h, read-out: lung/plasma conc ratio at time(h)): 362
Kp at 6 h ([2]; male, CD, other: intra-tracheal, i.t. dosing, 6 h, read-out: lung/plasma conc ratio at time(h)): 461
Kp at 24 h ([2]; male, CD, other: intra-tracheal, i.t. dosing, 24 h, read-out: lung/plasma conc ratio at time(h)): 1520
MRT ([2]; male, CD, plasma, iv, i.v. dosing): 8 h
clearance ([2]; male, CD, plasma, iv, i.v. dosing (i.v. dose 0.1-0.5 per compound)): 48 mL/min/kg
Vd ([2]; male, CD, plasma, iv, i.v. dosing, read-out: Vss): 23 L/kg
half-life ([2]; male, CD, plasma, iv, i.v. dosing, read-out: t½ (converted)): 456 min
Lung conc i.t./i.v. Ratio at time (h) ([2]; 0.1 h): 7.6
Lung conc i.t./i.v. Ratio at time (h) ([2]; 1.5 h): 6.8
Lung conc i.t./i.v. Ratio at time (h) ([2]; 6 h): 6.8
Lung conc i.t./i.v. Ratio at time (h) ([2]; 24 h): 14.4
i.t. BAV (%) ([2]; i.t. dosing (i.t. dose 0.1-0.5 per compound)): 70%
BAL % administered dose at time (h) ([2]; i.t. dosing, 0.1 h): 3.1%
BAL % administered dose at time (h) ([2]; i.t. dosing, 1.5 h): 0.6%
BAL % administered dose at time (h) ([2]; i.t. dosing, 6 h): 0.3%
BAL % administered dose at time (h) ([2]; i.t. dosing, 24 h): 0.2%
BAL % administered dose at time (h) ([2]; i.v. dosing, 0.1 h): 0.04%
BAL % administered dose at time (h) ([2]; i.v. dosing, 1.5 h): 0.01%
BAL % administered dose at time (h) ([2]; i.v. dosing, 6 h): 0.01%
BAL % administered dose at time (h) ([2]; i.v. dosing, 24 h): 0.01%
Oral BAV (%) ([2]; oral dose 3 mg/kg): 4%
IC50 [3]: 7.74 nM
% phos: percentage phosphorylation after wash-out relative to maximal phosphorylation (100%) [4]: 37.3%
% Recovery [5]: 60.9%
recovery at 5 hr, 10 μM ([5]; pH 7, PAMPA): 50.4%
concentration at 6 h ([7]; male, C57BL/6J, iv, 0.2 mg/kg, i.v. dosing, 6 h, mean): 306 nM
concentration at 0.1 h ([7]; male, C57BL/6J, iv, i.v. dosing, 0.1 h, mean): 868 nM
concentration at 1.5 h ([7]; male, C57BL/6J, iv, i.v. dosing, 1.5 h, mean): 416 nM
concentration at 24 h ([7]; male, C57BL/6J, iv, i.v. dosing, 24 h, mean): 20 nM
concentration at 0.1 h ([7]; male, C57BL/6J, other: intra-nasal, i.n. dosing, 0.1 h, mean): 3510 nM
concentration at 1.5 h ([7]; male, C57BL/6J, other: intra-nasal, i.n. dosing, 1.5 h, mean): 1730 nM
concentration at 6 h ([7]; male, C57BL/6J, other: intra-nasal, i.n. dosing, 6 h, mean): 1320 nM
concentration at 24 h ([7]; male, C57BL/6J, other: intra-nasal, i.n. dosing, 24 h, mean): 363 nM
Kp at 6 h ([7]; male, C57BL/6J, iv, 0.2 mg/kg, i.v. dosing, 6 h, read-out: lung/plasma ratio at time(h)): 152
Kp at 0.1 h ([7]; male, C57BL/6J, iv, i.v. dosing, 0.1 h, read-out: lung/plasma ratio at time(h)): 13
Kp at 1.5 h ([7]; male, C57BL/6J, iv, i.v. dosing, 1.5 h, read-out: lung/plasma ratio at time(h)): 39
Kp at 0.1 h ([7]; male, C57BL/6J, other: intra-nasal, i.n. dosing, 0.1 h, read-out: lung/plasma conc ratio at time(h)): 209
Kp at 1.5 h ([7]; male, C57BL/6J, other: intra-nasal, i.n. dosing, 1.5 h, read-out: lung/plasma conc ratio at time(h)): 688
Kp at 6 h ([7]; male, C57BL/6J, other: intra-nasal, i.n. dosing, 6 h, read-out: lung/plasma conc ratio at time(h)): 1130
clearance ([7]; male, C57BL/6J, whole blood, iv): 111 mL/min/kg
MRT ([7]; male, C57BL/6J, whole blood, iv, i.v. dosing, mean): 3.2 h
Vd ([7]; male, C57BL/6J, whole blood, iv, i.v. dosing, mean, read-out: Vss): 21 L/kg
half-life ([7]; male, C57BL/6J, whole blood, iv, i.v. dosing, mean, read-out: t½ (converted)): 156 min
Lung conc i.n./i.v. Ratio at time (h) ([7]; 0.1 h): 4.0
Lung conc i.n./i.v. Ratio at time (h) ([7]; 1.5 h): 4.2
Lung conc i.n./i.v. Ratio at time (h) ([7]; 6 h): 4.3
Lung conc i.n./i.v. Ratio at time (h) ([7]; 24 h): 18.2
BAV (%) ([7]; i.n. dosing (i.n. dose 1 nintedanib, 0.2 examples), mean): 14%
BAL % administered dose at time (h) ([7]; i.n. dosing, 0.1 h): 1%
BAL % administered dose at time (h) ([7]; i.n. dosing, 1.5 h): 0.1%
BAL % administered dose at time (h) ([7]; i.n. dosing, 6 h): 0.3%
BAL % administered dose at time (h) ([7]; i.n. dosing, 24 h): 0.1%
BAL % administered dose at time (h) ([7]; i.v. dosing, 0.1 h): 0.07%
BAL % administered dose at time (h) ([7]; i.v. dosing, 1.5 h): 0.02%
BAL % administered dose at time (h) ([7]; i.v. dosing, 6 h): 0.01%
BAL % administered dose at time (h) ([7]; i.v. dosing, 24 h): 0.02%
BAV (%) ([7]; oral dosing (oral dose 60 mg/kg nintedanib, 10 mg/kg examples), mean): 13%
SMILES: COC(=O)c1cc2c(cc1C)/C(=C(/Nc1ccc(C(=O)NOCCN(C)C)c(C)c1)c1ccccc1)C(=O)N2 [Example 5, (Z)-Methyl 3-(((4-((2-(dimethylamino)ethoxy)carbamoyl)-3-methylphenyl)amino)(phenyl)methylene)-5-methyl-2-oxoindoline-6-carboxylate]
Cell viability at 100 nM (%) ([6]; 100 nM): 100.6%
Cell viability at 300 nM (%) ([6]; 300 nM): 92.5%
Cell viability at 1000 nM (%) ([6]; 1000 nM): 71.5%
